Some test systems named below: A498; A549; BT-549; CAKI-1; CCRF-CEM; DU-145; HOP-92; HT-29; K562; NCI-H226; NCI-H460; OVCAR-5; PC-3; RPMI-8226; SF-539; SK-MEL-28; SK-MEL-2; SNB-19; SW-620; UACC-62.
Holding throughout (test): NCI-60 cell line screen, 48 h

Each structure is given as a SMILES string.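 Each compound was tested at five concentrations against cells in 96-well plates for 48 hours. GI50 marks 50% less growth.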 The source made the active and inactive calls. No stated cut-off is given here; in the data, active = GI50 up to about 1.1 µM and inactive = higher.

Take `COc1cccc2ccc3c(c12)C(=O)OC31CCc2c(C)cccc21` (stereo not given): the GI50 is 7.41 µM (inactive) with A498; 17.1 µM (inactive) in the assay on A549; > 100 µM (inactive) with BT-549; 7.26 µM (inactive) with CAKI-1; 24 µM (inactive) with CCRF-CEM; 34.2 µM (inactive) with DU-145. Also, the GI50 is 11.2 µM (inactive) in the assay on HOP-92; 11.8 µM (inactive) with HT-29; 7.91 µM (inactive) in the assay with K562; 12 µM (inactive) in the assay on NCI-H226; 10.6 µM (inactive) in the assay on NCI-H460; 26.5 µM (inactive) in the assay with OVCAR-5. Further, the GI50 was 15.6 µM (inactive) in the assay on PC-3; 6.87 µM (inactive) in the assay on RPMI-8226; 31.3 µM (inactive) in the assay on SF-539; 22.4 µM (inactive) with SK-MEL-28; 32.1 µM (inactive) with SK-MEL-2; 11.4 µM (inactive) with SNB-19. The GI50 in the assay with SW-620 is 12.1 µM (inactive); in the assay on UACC-62, 11.6 µM (inactive).

With `Nc1ccc(C(=O)N/C(=C\c2cccc([N+](=O)[O-])c2)c2nc3c(O)nc(S)nc3[nH]2)cc1`, the GI50 in the assay on A498 was 65.8 µM (inactive); with A549 it was 74.3 µM (inactive); with BT-549 it was > 100 µM (inactive); in the assay on CAKI-1 it was > 100 µM (inactive); with CCRF-CEM, > 100 µM (inactive); in the assay with DU-145, > 100 µM (inactive). Moreover, the GI50 in the assay on HOP-92 was 20.9 µM (inactive); in the assay with HT-29, > 100 µM (inactive); with K562 it was > 100 µM (inactive); in the assay on NCI-H226, > 51.8 µM (inactive); with NCI-H460, > 100 µM (inactive); in the assay on OVCAR-5 it was > 100 µM (inactive). The GI50 with PC-3 was > 100 µM (inactive); in the assay with RPMI-8226, > 100 µM (inactive); with SF-539 it was 18.5 µM (inactive); in the assay on SK-MEL-28, > 100 µM (inactive); in the assay with SK-MEL-2, 53.7 µM (inactive); in the assay with SNB-19 it was 42 µM (inactive). In addition, the GI50 in the assay with SW-620 was > 100 µM (inactive); in the assay with UACC-62, 41.9 µM (inactive).

Consider `COc1ccc2[nH]c3c(c2c1)COc1ccccc1C3=O`, for which the GI50 with A498 was > 100 µM (inactive); in the assay with A549, > 100 µM (inactive); with BT-549 it was 37.1 µM (inactive); in the assay on CAKI-1 it was > 100 µM (inactive); in the assay on CCRF-CEM, > 100 µM (inactive); with DU-145, > 100 µM (inactive). Besides, the GI50 with HOP-92, with HT-29, in the assay with K562, with NCI-H226, in the assay with NCI-H460 and in the assay with OVCAR-5 was > 100 µM (inactive) in each case. Besides, the GI50 was > 100 µM (inactive) in the assay with PC-3; > 100 µM (inactive) in the assay on RPMI-8226; 89.1 µM (inactive) with SF-539; > 100 µM (inactive) in the assay with SK-MEL-28; 34.8 µM (inactive) with SK-MEL-2; > 100 µM (inactive) with SNB-19. Moreover, the GI50 with SW-620 and in the assay with UACC-62 was > 100 µM (inactive) each time.

Consider `Cc1ccc(NC(=O)CC(=O)N2N=C(N(C)c3ccccc3)CC2c2ccccc2)cc1` (stereo not given), for which the GI50 in the assay on A498, with A549, with BT-549, with CAKI-1, in the assay on CCRF-CEM and in the assay with DU-145 was > 100 µM (inactive) in each case. Besides, the GI50 in the assay with HOP-92, in the assay with HT-29, in the assay with K562, in the assay with NCI-H226, in the assay on NCI-H460 and in the assay on OVCAR-5 was > 100 µM (inactive) each time. Further, the GI50 with PC-3, in the assay on RPMI-8226, with SF-539, with SK-MEL-28, in the assay on SK-MEL-2 and in the assay with SNB-19 was > 100 µM (inactive) in each case. Also, the GI50 in the assay with SW-620 and in the assay with UACC-62 was > 100 µM (inactive) throughout.

On to `COc1cc2c(/C=C3/C(=O)Nc4ccc(Cl)cc43)c(Cl)[nH]c2cc1C`, for which the GI50 is 10.6 µM (inactive) in the assay on A498; 0.711 µM (active) in the assay with A549; 0.181 µM (active) in the assay on BT-549; 0.39 µM (active) in the assay on CAKI-1; 0.332 µM (active) in the assay with CCRF-CEM; 1.36 µM (inactive) in the assay with DU-145. Besides, the GI50 with HOP-92 is 10.6 µM (inactive); in the assay on HT-29 it was 0.544 µM (active); in the assay on K562, 0.394 µM (active); in the assay with NCI-H226 it was 1.1 µM (active); in the assay on NCI-H460 it was 0.524 µM (active); in the assay on OVCAR-5 it was 3.27 µM (inactive). The GI50 in the assay on PC-3 was 0.505 µM (active); with RPMI-8226 it was 0.91 µM (active); in the assay with SF-539, 0.232 µM (active); in the assay on SK-MEL-28 it was 0.26 µM (active); in the assay on SK-MEL-2 it was 0.966 µM (active); in the assay on SNB-19, 0.408 µM (active). Moreover, the GI50 in the assay on SW-620 is 0.596 µM (active); with UACC-62 it was 0.288 µM (active).

`CC(C)(C)c1c(C(C)(C)C)c(=O)c1=O`: the GI50 in the assay with A498 was 86.1 µM (inactive); in the assay on A549 it was > 100 µM (inactive); in the assay on BT-549, > 100 µM (inactive); in the assay on CAKI-1, > 100 µM (inactive); in the assay with CCRF-CEM, > 100 µM (inactive); in the assay with DU-145, > 100 µM (inactive). For the same molecule, the GI50 in the assay on HOP-92, in the assay with HT-29, in the assay with K562, in the assay with NCI-H226, with NCI-H460 and with OVCAR-5 was > 100 µM (inactive) throughout. Moreover, the GI50 with PC-3, in the assay with RPMI-8226, in the assay with SF-539, in the assay with SK-MEL-28, with SK-MEL-2 and in the assay with SNB-19 was > 100 µM (inactive) each time. Besides, the GI50 in the assay on SW-620 and with UACC-62 was > 100 µM (inactive) each time.

Turning to `Cc1c(O)nc(/C=C/C(=O)O)nc1C(=O)O`, the GI50 in the assay on A498, in the assay on A549, in the assay with BT-549, in the assay with CAKI-1, in the assay on CCRF-CEM and with DU-145 was > 100 µM (inactive) in each case. The GI50 in the assay on HOP-92, with HT-29, in the assay with K562, with NCI-H226, in the assay with NCI-H460 and in the assay with OVCAR-5 was > 100 µM (inactive) in each case. For the same molecule, the GI50 in the assay with PC-3, with RPMI-8226, in the assay on SF-539, in the assay on SK-MEL-28, in the assay with SK-MEL-2 and in the assay on SNB-19 was > 100 µM (inactive) throughout. Also, the GI50 with SW-620 and in the assay on UACC-62 was > 100 µM (inactive) in each case.

Turning to `O=C(Cc1ccccc1F)NC1=C(Cl)C(=O)c2ccccc2C1=O`, the GI50 with A498 was 4.69 µM (inactive); in the assay on A549, 2.51 µM (inactive); in the assay with BT-549, 1.36 µM (inactive); in the assay on CAKI-1, 2.79 µM (inactive); with CCRF-CEM, 0.428 µM (active); in the assay with DU-145, 10.1 µM (inactive). For the same molecule, the GI50 with HOP-92 was 0.887 µM (active); in the assay with HT-29, 5.75 µM (inactive); with K562, 0.611 µM (active); in the assay with NCI-H226, 1.74 µM (inactive); in the assay with NCI-H460, 1.38 µM (inactive); in the assay on OVCAR-5, 4.08 µM (inactive). Also, the GI50 in the assay on PC-3 was 1.25 µM (inactive); in the assay on RPMI-8226, 0.436 µM (active); with SF-539, 0.333 µM (active); in the assay with SK-MEL-28, 0.822 µM (active); in the assay on SK-MEL-2 it was 0.652 µM (active); in the assay on SNB-19, 2.84 µM (inactive). Further, the GI50 is 0.721 µM (active) in the assay on SW-620 and 0.481 µM (active) in the assay on UACC-62.

Regarding `COc1cc2ccc(=O)oc2cc1O` [SCOPOLETIN], the GI50 with A498 is 80.4 µM (inactive); with A549, 40.1 µM (inactive); in the assay on BT-549 it was > 100 µM (inactive); in the assay with CAKI-1 it was 119 µM (inactive); in the assay with CCRF-CEM it was 30.4 µM (inactive); in the assay on DU-145, > 100 µM (inactive). Moreover, the GI50 with HOP-92 is 206 µM (inactive); in the assay on HT-29, 161 µM (inactive); in the assay with K562, 152 µM (inactive); in the assay with NCI-H226, 86.3 µM (inactive); in the assay on NCI-H460, 18.4 µM (inactive); in the assay with OVCAR-5, 156 µM (inactive). In addition, the GI50 was > 100 µM (inactive) in the assay with PC-3; 46.1 µM (inactive) with RPMI-8226; 53.3 µM (inactive) with SF-539; 73.3 µM (inactive) in the assay on SK-MEL-28; 109 µM (inactive) in the assay with SK-MEL-2; 44 µM (inactive) in the assay on SNB-19. Further, the GI50 with SW-620 is 67.3 µM (inactive); in the assay on UACC-62, 71.3 µM (inactive).

Values taken from ChEMBL document CHEMBL1201862, “PubChem BioAssay data set” (2004).
